From ChEMBL document CHEMBL1201862, “PubChem BioAssay data set” (2004)
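Method: 48-hour compound exposure of cells in 96-well plates, five concentrations, linear interpolation of endpoints. GI50: concentration for 50% inhibition of growth.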 Activity calls are given as the source filed them. Rule as the data show it: active = GI50 up to about 1.1 µM and inactive = higher.

Assays:
Experiment in all cases: inhibition of tumour cell growth, NCI panel, 48 h
A549 = tested on: A549
CAKI-1 = tested on: CAKI-1
HCC 2998 = tested on: HCC 2998
HCT-15 = tested on: HCT-15
KM12 = tested on: KM12
MCF7 = tested on: MCF7
MDA-N = tested on: MDA-N
Malme-3M = tested on: Malme-3M
NCI-H23 = tested on: NCI-H23
NCI-H522 = tested on: NCI-H522
OVCAR-4 = tested on: OVCAR-4
RPMI-8226 = tested on: RPMI-8226
RXF 393 = tested on: RXF 393
SF-268 = tested on: SF-268
SK-MEL-5 = tested on: SK-MEL-5
SK-OV-3 = tested on: SK-OV-3
TK-10 = tested on: TK-10
U-251 = tested on: U-251
UACC-62 = tested on: UACC-62
UO-31 = tested on: UO-31

Compound	GI50 (A549)	GI50 (CAKI-1)	GI50 (HCC 2998)	GI50 (HCT-15)	GI50 (KM12)	GI50 (MCF7)	GI50 (MDA-N)	GI50 (Malme-3M)	GI50 (NCI-H23)	GI50 (NCI-H522)	GI50 (OVCAR-4)	GI50 (RPMI-8226)	GI50 (RXF 393)	GI50 (SF-268)	GI50 (SK-MEL-5)	GI50 (SK-OV-3)	GI50 (TK-10)	GI50 (U-251)	GI50 (UACC-62)	GI50 (UO-31)
S=C(N/N=C\c1ccccn1)N(Cc1ccccn1)Cc1ccccn1	2.3 µM (inactive)	0.229 µM (active)	7.03 µM (inactive)	0.622 µM	1.49 µM (inactive)	0.111 µM (active)	7.55 µM (inactive)	1.37 µM (inactive)	1.87 µM (inactive)	0.0637 µM (active)	0.91 µM (active)	1.17 µM (inactive)	10.4 µM (inactive)	0.431 µM (active)	1.07 µM (active)	2.04 µM (inactive)	0.637 µM (active)	0.195 µM (active)	2.08 µM (inactive)	1.26 µM (inactive)
COc1ccc2[nH]c(C(=O)N3CC(CCl)c4ccc([N+](=O)[O-])cc43)cc2c1 (stereo not given)	> 100 µM (inactive)	> 100 µM (inactive)	> 100 µM (inactive)	> 100 µM	> 31.8 µM (inactive)	6.41 µM (inactive)	> 100 µM (inactive)	> 100 µM (inactive)	> 100 µM (inactive)	75 µM (inactive)	> 64.4 µM (inactive)	> 100 µM (inactive)	> 65.5 µM (inactive)	> 100 µM (inactive)	> 100 µM (inactive)	> 100 µM (inactive)	> 100 µM (inactive)	> 100 µM (inactive)	> 100 µM (inactive)	> 100 µM (inactive)
COc1cc2c(cc1Cc1c(F)cccc1Cl)nc(-c1c(F)cccc1Cl)n2Cc1c(F)cccc1Cl	20.7 µM (inactive)	6.07 µM (inactive)	17.5 µM (inactive)	62.7 µM	28.4 µM (inactive)	35.2 µM (inactive)	20.6 µM (inactive)	20 µM (inactive)	19.8 µM (inactive)	16.1 µM (inactive)	18.6 µM (inactive)	13.7 µM (inactive)	77.3 µM (inactive)	58.9 µM (inactive)	13.5 µM (inactive)	20.8 µM (inactive)	> 100 µM (inactive)	35.2 µM (inactive)	56.4 µM (inactive)	48.4 µM (inactive)
COc1ccc2c(c1)nc1n2C(N)=Nc2ccccc2S1	29.7 µM (inactive)	> 100 µM (inactive)	31.8 µM (inactive)	35.4 µM	15.4 µM (inactive)	11.3 µM (inactive)	16.9 µM (inactive)	62.2 µM (inactive)	40.6 µM (inactive)	16.6 µM (inactive)	34.4 µM (inactive)	8.73 µM (inactive)	30 µM (inactive)	16.7 µM (inactive)	7.45 µM (inactive)	67 µM (inactive)	> 100 µM (inactive)	18.8 µM (inactive)	21 µM (inactive)	26.4 µM (inactive)
COc1ccc2c(c1)-c1nn(CCN(C)C)c3ccc(C(=O)NCCCN(C)CCCNC(=O)c4ccc5c6c(c7cc(OC)ccc7nc46)NN5CCN(C)C)c(c13)N2	0.0136 µM (active)	0.346 µM (active)	0.045 µM (active)	0.251 µM	0.0284 µM (active)	0.0202 µM (active)	0.0361 µM (active)	0.106 µM (active)	0.0344 µM (active)	< 0.01 µM (active)	0.0352 µM (active)	0.0105 µM (active)	0.0366 µM (active)	0.153 µM (active)	0.0512 µM (active)	0.0861 µM (active)	0.102 µM (active)	< 0.01 µM (active)	0.0692 µM (active)	0.183 µM (active)
C[C@H]1C2Cc3cc(O)ccc3[C@@]1(C)CCN2CCc1ccc(N)cc1	28.6 µM (inactive)	> 100 µM (inactive)	13.6 µM (inactive)	18.2 µM	16.7 µM (inactive)	15.2 µM (inactive)	20.7 µM (inactive)	18.8 µM (inactive)	> 100 µM (inactive)	19.7 µM (inactive)	55.6 µM (inactive)	28.4 µM (inactive)	52.7 µM (inactive)	19.6 µM (inactive)	14.4 µM (inactive)	> 100 µM (inactive)	> 100 µM (inactive)	17.6 µM (inactive)	> 100 µM (inactive)	37.2 µM (inactive)
CC(C)(C)CC(C)(C)N/C(N)=N/O	> 100 µM (inactive)	> 100 µM (inactive)	> 100 µM (inactive)	56.1 µM	> 100 µM (inactive)	8.79 µM (inactive)	> 100 µM (inactive)	> 100 µM (inactive)	> 91 µM (inactive)	> 100 µM (inactive)	> 37.4 µM (inactive)	> 100 µM (inactive)	> 100 µM (inactive)	> 89.3 µM (inactive)	51.8 µM (inactive)	24.1 µM (inactive)	> 48.5 µM (inactive)	> 100 µM (inactive)	> 100 µM (inactive)	> 21.7 µM (inactive)
